From patent US20170050957A1, “4-AMINO-6-(HETEROCYCLIC)PICOLINATES AND 6-AMINO-2-(HETEROCYCLIC)PYRIMIDINE-4-CARBOXYLATES AND THEIR USE AS HERBICIDES” (Dow AgroSciences LLC, priority 2013, published 2017)
Like-named read-outs stand apart in the source and are kept apart here.

Columns and labels:
[1] = tested on: Key Broadleaf Weed and Crop Species; assay: Post-emergent Test II herbicidal activity (Table 15); assay type: in vivo; conditions: post-emergence, 336 h, 14 d; for pest or weed control at 35 g/ha: 35 g ai/ha; for pest or weed control at 70 g/ha: 70 g ai/ha; for pest or weed control at 140 g/ha: 140 g ai/ha
In short: (§1)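 Plants at first-second true leaf stage, grown 7-21 d in greenhouse (~15 h photoperiod, 23-29 °C day), were track-sprayed at 187 L/ha with compound in acetone/DMSO/water/isopropanol/crop oil/Triton X-155 at a high rate plus 1/2× to 1/16× dilutions. Injury scored visually after 14 d versus untreated plants, 0 (none) to 100% (complete kill).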

[2] = tested on: Key Grass and Sedge Weeds as well as Grass Crops; assay: Post-emergent Test II herbicidal activity (Table 16); assay type: in vivo; conditions: post-emergence, 336 h, 14 days after application; for pest or weed control at 35 g/ha: 35 g ai/ha; for pest or weed control at 70 g/ha: 70 g ai/ha; for pest or weed control at 140 g/ha: 140 g ai/ha
In short: as §1

[3] = Abutilon theophrasti, velvetleaf (Abutilon theophrasti), read-out: Visual Growth Reduction (%) 14 Days After Application, ABUTH
[4] = Amaranthus retroflexus, redroot pigweed (Amaranthus retroflexus), read-out: Visual Growth Reduction (%) 14 Days After Application, AMARE
[5] = Brassica napus, oilseed rape, canola (Brassica napus), read-out: Visual Growth Reduction (%) 14 Days After Application, BRSNN
[6] = Chenopodium album, lambsquarters (Chenopodium album), read-out: Visual Growth Reduction (%) 14 Days After Application, CHEAL
[7] = Euphorbia heterophylla, wild poinsettia (Euphorbia heterophylla), read-out: Visual Growth Reduction (%) 14 Days After Application, EPHHL
[8] = Helianthus annuus, sunflower (Helianthus annuus), read-out: Visual Growth Reduction (%) 14 Days After Application, HELAN
[9] = Cyperus esculentus, yellow nutsedge (Cyperus esculentus), read-out: Visual Growth Reduction (%) 14 Days After Application CYPES
[10] = Echinochloa crus-galli, barnyardgrass (Echinochloa crus-galli), read-out: Visual Growth Reduction (%) 14 Days After Application ECHCG
[11] = Oryza sativa, rice (Oryza sativa), read-out: Visual Growth Reduction (%) 14 Days After Application ORYSA
[12] = Setaria faberi, giant foxtail (Setaria faberi), read-out: Visual Growth Reduction (%) 14 Days After Application SETFA
[13] = Triticum aestivum, wheat, spring (Triticum aestivum), read-out: Visual Growth Reduction (%) 14 Days After Application TRZAS
[14] = Zea mays, maize, corn (Zea mays), read-out: Visual Growth Reduction (%) 14 Days After Application ZEAMX

Question: For `COC(=O)c1nc(-c2cccc3c2cnn3C)c(F)c(N)c1Cl` [Compound 4.10], which pest or weed control at 35 g/ha [1, 3] is on record?
Answer: 0 to 29%

Question: What about the pest or weed control at 70 g/ha [1, 3] of the same compound?
Answer: 0 to 29%

Question: And the pest or weed control at 140 g/ha [1, 3]?
Answer: 0 to 29%

Question: What about the pest or weed control at 35 g/ha [1, 4] of the same compound?
Answer: 0 to 29%

Question: And the pest or weed control at 70 g/ha [1, 4]?
Answer: 95 to 100%

Question: What about the pest or weed control at 140 g/ha [1, 4] of the same compound?
Answer: 95 to 100%

Question: And the pest or weed control at 35 g/ha [1, 5]?
Answer: 0 to 29%

Question: What about the pest or weed control at 70 g/ha [1, 5] of the same compound?
Answer: 0 to 29%

Question: What about the pest or weed control at 140 g/ha [1, 5] of the same compound?
Answer: 0 to 29%

Question: And the pest or weed control at 35 g/ha [1, 6]?
Answer: 0 to 29%

Question: What about the pest or weed control at 70 g/ha [1, 6] of the same compound?
Answer: 0 to 29%

Question: What about the pest or weed control at 140 g/ha [1, 6] of the same compound?
Answer: 0 to 29%

Question: And the pest or weed control at 35 g/ha [1, 7]?
Answer: 0 to 29%

Question: And the pest or weed control at 70 g/ha [1, 7]?
Answer: 0 to 29%

Question: And the pest or weed control at 140 g/ha [1, 7]?
Answer: 0 to 29%

Question: What about the pest or weed control at 35 g/ha [1, 8] of the same compound?
Answer: 0 to 29%

Question: And the pest or weed control at 70 g/ha [1, 8]?
Answer: 0 to 29%

Question: What about the pest or weed control at 140 g/ha [1, 8] of the same compound?
Answer: 45 to 59%

Question: And the melting point?
Answer: 170 to 175 °C

Question: And the pest or weed control at 35 g/ha [2, 9]?
Answer: 0 to 29%

Question: What about the pest or weed control at 70 g/ha [2, 9] of the same compound?
Answer: 0 to 29%

Question: What about the pest or weed control at 140 g/ha [2, 9] of the same compound?
Answer: 0 to 29%

Question: And the pest or weed control at 35 g/ha [2, 10]?
Answer: 0 to 29%

Question: What about the pest or weed control at 70 g/ha [2, 10] of the same compound?
Answer: 0 to 29%

Question: And the pest or weed control at 140 g/ha [2, 10]?
Answer: 0 to 29%

Question: And the pest or weed control at 35 g/ha [2, 11]?
Answer: 0 to 29%

Question: What about the pest or weed control at 70 g/ha [2, 11] of the same compound?
Answer: 0 to 29%

Question: And the pest or weed control at 140 g/ha [2, 11]?
Answer: 0 to 29%

Question: What about the pest or weed control at 35 g/ha [2, 12] of the same compound?
Answer: 0 to 29%

Question: What about the pest or weed control at 70 g/ha [2, 12] of the same compound?
Answer: 0 to 29%

Question: What about the pest or weed control at 140 g/ha [2, 12] of the same compound?
Answer: 0 to 29%

Question: What about the pest or weed control at 35 g/ha [2, 13] of the same compound?
Answer: 0 to 29%

Question: And the pest or weed control at 70 g/ha [2, 13]?
Answer: 0 to 29%

Question: And the pest or weed control at 140 g/ha [2, 13]?
Answer: 0 to 29%

Question: And the pest or weed control at 35 g/ha [2, 14]?
Answer: 0 to 29%

Question: And the pest or weed control at 70 g/ha [2, 14]?
Answer: 0 to 29%

Question: What about the pest or weed control at 140 g/ha [2, 14] of the same compound?
Answer: 0 to 29%

Question: Which results are given for `COC(=O)c1nc(-c2cccc3cn[nH]c23)c(F)c(N)c1Cl` [Compound 4.13]?
Answer: pest or weed control at 35 g/ha [1, 3]: 0 to 29%; pest or weed control at 70 g/ha [1, 3]: 0 to 29%; pest or weed control at 140 g/ha [1, 3]: 0 to 29%; pest or weed control at 35 g/ha [1, 5]: 0 to 29%; pest or weed control at 70 g/ha [1, 5]: 0 to 29%; pest or weed control at 140 g/ha [1, 5]: 0 to 29%; pest or weed control at 35 g/ha [1, 6]: 0 to 29%; pest or weed control at 70 g/ha [1, 6]: 0 to 29%; pest or weed control at 140 g/ha [1, 6]: 60 to 74%; pest or weed control at 35 g/ha [1, 7]: 0 to 29%; pest or weed control at 70 g/ha [1, 7]: 0 to 29%; pest or weed control at 140 g/ha [1, 7]: 0 to 29%; pest or weed control at 35 g/ha [1, 8]: 0 to 29%; pest or weed control at 70 g/ha [1, 8]: 0 to 29%; pest or weed control at 140 g/ha [1, 8]: 0 to 29%; melting point: 207 to 210 °C; pest or weed control at 35 g/ha [2, 9]: 0 to 29%; pest or weed control at 70 g/ha [2, 9]: 0 to 29%; pest or weed control at 140 g/ha [2, 9]: 0 to 29%; pest or weed control at 35 g/ha [2, 10]: 0 to 29%; pest or weed control at 70 g/ha [2, 10]: 0 to 29%; pest or weed control at 140 g/ha [2, 10]: 0 to 29%; pest or weed control at 35 g/ha [2, 11]: 0 to 29%; pest or weed control at 70 g/ha [2, 11]: 0 to 29%; pest or weed control at 140 g/ha [2, 11]: 0 to 29%; pest or weed control at 35 g/ha [2, 12]: 0 to 29%; pest or weed control at 70 g/ha [2, 12]: 0 to 29%; pest or weed control at 140 g/ha [2, 12]: 0 to 29%; pest or weed control at 35 g/ha [2, 13]: 0 to 29%; pest or weed control at 70 g/ha [2, 13]: 0 to 29%; pest or weed control at 140 g/ha [2, 13]: 0 to 29%; pest or weed control at 35 g/ha [2, 14]: 0 to 29%; pest or weed control at 70 g/ha [2, 14]: 0 to 29%; pest or weed control at 140 g/ha [2, 14]: 0 to 29%

Question: Which pest or weed control at 35 g/ha [1, 3] does the source give for `COC(=O)c1nc(-c2ccc3scnc3c2)c(F)c(N)c1Cl` [Compound 6.01, Methyl 4-amino-6-(benzo[d]thiazol-5-yl)-3-chloro-5-fluoropicolinate] here?
Answer: 85 to 94%

Question: What about the pest or weed control at 70 g/ha [1, 3] of the same compound?
Answer: 85 to 94%

Question: And the pest or weed control at 140 g/ha [1, 3]?
Answer: 85 to 94%

Question: And the pest or weed control at 35 g/ha [1, 4]?
Answer: 85 to 94%

Question: And the pest or weed control at 70 g/ha [1, 4]?
Answer: 95 to 100%

Question: And the pest or weed control at 140 g/ha [1, 4]?
Answer: 95 to 100%

Question: And the pest or weed control at 35 g/ha [1, 5]?
Answer: 95 to 100%

Question: What about the pest or weed control at 70 g/ha [1, 5] of the same compound?
Answer: 95 to 100%

Question: What about the pest or weed control at 140 g/ha [1, 5] of the same compound?
Answer: 95 to 100%

Question: What about the pest or weed control at 35 g/ha [1, 6] of the same compound?
Answer: 95 to 100%

Question: What about the pest or weed control at 70 g/ha [1, 6] of the same compound?
Answer: 95 to 100%

Question: And the pest or weed control at 140 g/ha [1, 6]?
Answer: 95 to 100%

Question: What about the pest or weed control at 35 g/ha [1, 7] of the same compound?
Answer: 0 to 29%

Question: And the pest or weed control at 70 g/ha [1, 7]?
Answer: 85 to 94%

Question: What about the pest or weed control at 140 g/ha [1, 7] of the same compound?
Answer: 95 to 100%

Question: And the pest or weed control at 35 g/ha [1, 8]?
Answer: 85 to 94%

Question: What about the pest or weed control at 70 g/ha [1, 8] of the same compound?
Answer: 85 to 94%

Question: What about the pest or weed control at 140 g/ha [1, 8] of the same compound?
Answer: 85 to 94%

Question: What about the melting point of the same compound?
Answer: 216 °C

Question: And the pest or weed control at 35 g/ha [2, 9]?
Answer: 45 to 59%

Question: What about the pest or weed control at 70 g/ha [2, 9] of the same compound?
Answer: 45 to 59%

Question: What about the pest or weed control at 140 g/ha [2, 9] of the same compound?
Answer: 45 to 59%

Question: And the pest or weed control at 35 g/ha [2, 10]?
Answer: 0 to 29%

Question: And the pest or weed control at 70 g/ha [2, 10]?
Answer: 45 to 59%

Question: And the pest or weed control at 140 g/ha [2, 10]?
Answer: 60 to 74%

Question: What about the pest or weed control at 35 g/ha [2, 11] of the same compound?
Answer: 0 to 29%

Question: What about the pest or weed control at 70 g/ha [2, 11] of the same compound?
Answer: 0 to 29%

Question: And the pest or weed control at 140 g/ha [2, 11]?
Answer: 0 to 29%

Question: And the pest or weed control at 35 g/ha [2, 12]?
Answer: 0 to 29%

Question: And the pest or weed control at 70 g/ha [2, 12]?
Answer: 0 to 29%

Question: What about the pest or weed control at 140 g/ha [2, 12] of the same compound?
Answer: 0 to 29%

Question: What about the pest or weed control at 35 g/ha [2, 13] of the same compound?
Answer: 0 to 29%

Question: What about the pest or weed control at 70 g/ha [2, 13] of the same compound?
Answer: 0 to 29%

Question: And the pest or weed control at 140 g/ha [2, 13]?
Answer: 0 to 29%

Question: What about the pest or weed control at 35 g/ha [2, 14] of the same compound?
Answer: 0 to 29%

Question: And the pest or weed control at 70 g/ha [2, 14]?
Answer: 0 to 29%

Question: And the pest or weed control at 140 g/ha [2, 14]?
Answer: 0 to 29%
